Assay results reported in patent US11266626B2, “Reduction of ER-MAM-localized APP-C99 and methods of treating alzheimer's disease” (THE TRUSTEES OF COLUMBIA UNIVERSITY IN THE CITY OF NEW YORK, priority 2015, dated 2022).
“Also recorded” adds a separate entry of the source. Counter-ions that a name gives are not always drawn.

What was measured:
[1] = test system: APP; conditions: cited from earlier work; for Aβ: literature
[2] = test system: AD mice; conditions: cited from earlier work
[3] = test system: PS-DKO cells; assay: Staining of lipid droplets with LipidTox Green; format: cell-based, mouse; conditions: BI 100 nM, desipramine 10 μM, GW4869 5 μM, 12-16 h, Gleevec 10 μM
Protocol: Quantification of total cholesterol and cholesteryl esters was performed using the Cholesterol/Cholesteryl Ester Quantitation kit from Calbiochem (428901). Staining of lipid droplets Staining of lipid droplets was performed using HCS LipidTox™ Deep Green neutral lipid stain (Invitrogen H34475) according to the manufacturer's instructions. Lipid droplet staining was quantified using ImageJ. The different values represent the product of the intensity and the area covered by the fluorescent signal above background in every cell examined.
Staining of lipid droplets was performed using HCS LipidTox™ Deep Green neutral lipid stain (Invitrogen H34475) according to the manufacturer's instructions. Lipid droplet staining was quantified using ImageJ. The different values represent the product of the intensity and the area covered by the fluorescent signal above background in every cell examined.

[4] = molecular target: TRPML1 (Homo sapiens, UniProt Q9GZU1); conditions: Shen, D. et al.; cited from earlier work
[5] = test system: γ-secretase; conditions: A2A-AR antagonists; Lu, J. et al.; cited from earlier work
[6] = test system: PS-DKO cells; assay: Seahorse analysis of mitochondrial respiration (OCR); format: cell-based, mouse; conditions: BI 100 nM, myriocin 5 μM, TAPI-1 5 μM, 12-16 h, Aβ40:Aβ42 10:1, 6 ng/ml
Protocol: (§1) Respirometry of cultured cells was performed using the XF24e Extracellular Flux Analyzer (Seahorse Bioscience). Oxygen consumption was measured in basal conditions (Seahorse media with 25 mM glucose and 2 mM pyruvate) and after the sequential addition of 1 μM oligomycin (Complex V inhibitor), 0.75 μM FCCP (uncoupler) and 1 μM rotenone/1 μM antimycin A (Complex I and Complex III inhibitors respectively).
(§2) Respirometry of cultured cells was performed using the XF24e Extracellular Flux Analyzer (Seahorse Bioscience). Oxygen consumption was measured in basal conditions (Seahorse media with 25 mM glucose and 2 mM pyruvate) and after the sequential addition of 1 μM oligomycin (complex V inhibitor), 0.75 μM FCCP (uncoupler), and 1 μM rotenone/1 μM antimycin A (complex I and complex III inhibitors, respectively). All results were averages of five or more biological replicates. Every biological replicate consisted of three technical replicates. For every technical replicate, we plated equal number of cells (25,000 cell/well when MEFs were used, and 50,000 cells/well when human primary fibroblasts were analyzed). The number of cells was also counted after every respirometry assay to correct for cell death. All oxygen consumption (OCR) data were normalized by the number of viable cells or by protein quantity when isolated mitochondria were used.

[7] = Ghanbarabadi et al.; cited from earlier work
[8] = test system: Aβ42:Aβ40 ratio; assay: Aβ42:Aβ40 ratio (ELISA); format: cell-based; conditions: PS-mutant cells, desipramine
Protocol: Detection of Aβ40/Aβ42 levels in cell media was performed by ELISA following manufacturer's instructions (WAKO ELISA kit 294-64701 for Aβ40 and 292-64501 for Aβ42).

[9] = test system: PS-DKO cells; assay: Lipidomic analyses of membranes; format: cell-based, mouse; conditions: PS-DKO cells; BI 100 nM or myriocin 5 μM
Protocol: (§3) Lipid extracts were prepared via chloroform-methanol extraction, spiked with appropriate internal standards, and analyzed using a 6490 Triple Quadrupole LC/MS system (Agilent Technologies, Santa Clara, Calif.) as described previously (6, 7). Glycerophospholipids and sphingolipids were separated with normal-phase HPLC using an Agilent Zorbax Rx-Sil column (inner diameter 2.1×100 mm) under the following conditions: mobile phase A (chloroform:methanol:1 M ammonium hydroxide, 89.9:10:0.1, v/v) and mobile phase B (chloroform:methanol:water:ammonium hydroxide, 55:39.9:5:0.1, v/v); 95% A for 2 min, linear gradient to 30% A over 18 min and held for 3 min, and linear gradient to 95% A over 2 min and held for 6 min. Quantification of lipid species was accomplished using multiple reaction monitoring (MRM) transitions that were developed in earlier studies (6) in conjunction with referencing of appropriate internal standards: ceramide d18:1/17:0 and sphingomyelin d18:1/12:0 (Avanti Polar Lipids, Alabaster, Ala.).
as §3, with “Lipids were extracted from equal amounts of material (30 μg protein/sample). Lipid extracts” for “Lipid extracts”, “described previously (Chan et al., 2012). Glycerophospholipids and” for “described previously (6, 7). Glycerophospholipids and”, “hydroxide, 89.9:10:0.1, v/v/v) and mobile” for “hydroxide, 89.9:10:0.1, v/v) and mobile”, “hydroxide, 55:39.9:5:0.1, v/v/v); 95% A” for “hydroxide, 55:39.9:5:0.1, v/v); 95% A”, “earlier studies (Chan et al., 2012) in conjunction” for “earlier studies (6) in conjunction”, “Alabaster, Ala.). Values are represented as mole fraction with respect to total lipid (% molarity)” for “Alabaster, Ala.).”
Lipids were extracted from equal amounts of material (30 μg protein/sample). Lipid extracts were prepared via chloroform-methanol extraction, spiked with appropriate internal standards, and analyzed using a 6490 Triple Quadrupole LC/MS system (Agilent Technologies, Santa Clara, Calif.) as described previously (Chan et al, 2012). Glycerophospholipids and sphingolipids were separated with normal-phase HPLC using an Agilent Zorbax Rx-Sil column (inner diameter 2.1×100 mm) under the following conditions: mobile phase A (chloroform:methanol:1 M ammonium hydroxide, 89.9:10:0.1, v/v/v) and mobile phase B (chloroform:methanol:water:ammonium hydroxide, 55:39.9:5:0.1, v/v/v/v); 95% A for 2 min, linear gradient to 30% A over 18 min and held for 3 min, and linear gradient to 95% A over 2 min and held for 6 min. Quantification of lipid species was accomplished using multiple reaction monitoring (MRM) transitions that were developed in earlier studies (Chan et al, 2012) in conjunction with referencing of appropriate internal standards: ceramide d18:1/17:0 and sphingomyelin d18:1/12:0 (Avanti Polar Lipids, Alabaster, Ala., USA). Values are represented as mole fraction with respect to total lipid (% molarity). For this, lipid mass (in moles) of any specific lipid is normalized by the total mass (in moles) of all the lipids measured (Chan et al, 2012). In addition, all of our results were further normalized by protein content.

[10] = test system: mitochondrial respiratory supercomplexes; assay: Supercomplex analysis (blue-native gels, in-gel activity and western blot); format: cell-based, mouse
Protocol: Analysis and quantification of mitochondrial respiratory complexes by western blot and enzymatic in-gel activity were carried out as previously reported (Acin-Perez et al., 2008)
Analysis and quantification of mitochondrial respiratory complexes by Western blot and enzymatic in-gel activity were carried out as described (Acin-Perez et al, 2008).

[11] = test system: WT MEFs and presenilin-mutant (PS-DKO) cells; assay: Filipin staining of free cholesterol; format: cell-based, mouse; conditions: presenilin-mutant (PS-DKO) cells; CsA 100 nM; SSO 250 nM
Protocol: Cells were washed in PBS and fixed in 3% paraformaldehyde at room temperature for 1 h. After washing in PBS three times, samples were incubated in 1.5 mg/ml glycine in 1×PBS to quench the paraformaldehyde and then incubated in 0.05 mg/ml of filipin in PBS/10% FBS for 2 h at room temperature. Free cholesterol signal was visualized in by microscopy and quantified by ImageJ.

[12] = test system: APP-DKO cells; assay: Seahorse analysis of mitochondrial respiration (OCR); format: cell-based, mouse; conditions: WT and APP-DKO cells, Aβ42 oligomers 0, 5, 10 μM, 24 h, effect only at 10 μM
Protocol: as §1
(§4) To analyze the effect of Aβ addition, a mix of Aβ40/Aβ42 at a ratio 10:1 was added to the cultured cells to a final concentration of 6000 pg/ml for 24 h. For Aβ42 oligomer formation, 5 mM of Aβ42 in DMSO was diluted to 100 μM in ice-cold media, vortexed for 30 seconds, and incubated at 4° C. for 24 h. Aβ42 Oligomers were added to the cultured cells to a final concentration of 5 or 10 μM for 24 h.
as §2
as §4, with “6,000” for “6000”, “s,” for “seconds,”, “Aβ42 Oligomers were added to the cultured cells to a final concentration of 5 or 10 μM for 24 h.” left out

Sequence of TRPML1 (Q9GZU1 whole entry, species assumed): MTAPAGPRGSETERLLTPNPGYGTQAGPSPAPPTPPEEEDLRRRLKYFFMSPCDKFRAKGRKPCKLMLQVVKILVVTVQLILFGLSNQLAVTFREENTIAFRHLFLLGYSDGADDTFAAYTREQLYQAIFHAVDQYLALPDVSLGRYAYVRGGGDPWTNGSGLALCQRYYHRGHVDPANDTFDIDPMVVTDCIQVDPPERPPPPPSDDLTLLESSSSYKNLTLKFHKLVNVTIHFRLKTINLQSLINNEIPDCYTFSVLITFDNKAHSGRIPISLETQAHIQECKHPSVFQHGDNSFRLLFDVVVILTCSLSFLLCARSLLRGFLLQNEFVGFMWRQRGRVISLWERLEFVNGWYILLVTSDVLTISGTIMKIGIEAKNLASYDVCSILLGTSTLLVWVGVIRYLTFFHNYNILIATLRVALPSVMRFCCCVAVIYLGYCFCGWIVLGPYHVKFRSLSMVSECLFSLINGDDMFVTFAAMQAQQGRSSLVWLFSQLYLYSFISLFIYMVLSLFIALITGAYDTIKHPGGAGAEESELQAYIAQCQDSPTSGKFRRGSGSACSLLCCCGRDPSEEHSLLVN

CCCCCCCC[C@H](SCCCCCC)C(=O)Nc1c(SC)cc(C)nc1SC [CP-113,818]
Aβ [1]: reduces Aβ

CC(C)(C)NCC(O)c1cc(Cl)c(N)c(Cl)c1 (stereo not drawn) [Clenbuterol]
Thr668p (APP phosphorylated at Thr668) ([1]; Chai, G-s. et al.): reduced Thr668p | α-secretase ([1]; Chai, G-s. et al.): increased α-secretase | Aβ [1]: decreased Aβ

O=C1[C@H](CC[C@H](O)c2ccc(F)cc2)[C@@H](c2ccc(O)cc2)N1c1ccc(F)cc1 [Ezetimibe]
cognition / memory [2]: improves memory in AD mice

O=C(/C=C/c1ccc(/C=C/C(=O)Nc2ccc(C3=NCCN3)cc2)cc1)Nc1ccc(C2=NCCN2)cc1 [GW4869]
number of lipid droplets (LDs) [3]: reduced the accumulation of lipid droplets in PS-DKO cells to near-control levels; also recorded: reduced lipid droplet formation

Cc1ccc(NC(=O)c2ccc(CN3CCN(C)CC3)cc2)cc1Nc1nccc(-c2cccnc2)n1 [Gleevec, imatinib mesylate]
number of lipid droplets (LDs) [3]: significant reduction of LDs

CC1CC(C)(C)N(C(=O)CN2C(=O)c3ccccc3C2=O)c2ccccc21 (stereo not drawn) [ML-SA1]
TRPML1-mediated lysosomal Ca2+ release [4]: enhances TRPML1-mediated lysosomal Ca^2+ release | cholesterol [4]: reduces cholesterol

O=C(O)CCCc1ccccc1 [PBA, phenylbutyric acid]
α- and γ-cleavage of APP ([1]; reference [1]): stimulates both α- and γ-cleavage of APP | cholesterol defects [2]: rescues cholesterol defects | cognition / memory [2]: rescues cholesterol defects [4-6] and cognition

COCCOc1ccc(N2CCN(CCn3ncc4c3nc(N)n3nc(-c5ccco5)nc43)CC2)cc1 [Preladenant]
Aβ42 [5]: increased Aβ42 | γ-secretase activity [5]: increased γ-secretase activity

CC(C)C[C@H](CC(=O)NO)C(=O)N[C@@H](Cc1ccc2ccccc2c1)C(=O)N[C@@H](C)C(=O)NCCN [TAPI-1]
mitochondrial respiration (initial oxygen consumption rate, OCR) [6]: unaffected

COc1ccc(N2CCOCC2)c2sc(NC(=O)N3CCC(C)(O)CC3)nc12 [Tozadenant]
Aβ42 [5]: increased Aβ42 | γ-secretase activity [5]: increased γ-secretase activity

CC(C)=CCC/C(C)=C/COc1ccc2ccc(=O)oc2c1 [auraptene, 7-geranyloxycoumarin]
memory [7]: enhances memory

CNCCCN1c2ccccc2CCc2ccccc21 [desipramine]
number of lipid droplets (LDs) [3]: reduced the accumulation of lipid droplets in PS-DKO cells to near-control levels; also recorded: reduced lipid droplet formation | Aβ42:Aβ40 ratio [8]: reduced the Aβ42:Aβ40 ratio | Aβ42:Aβ40 ratio ([8]; listed as Desipramine): significantly reduced the Aβ42:Aβ40 ratio

CCCCCCC(=O)CCCCCC/C=C/C[C@@H](O)[C@H](O)[C@@](N)(CO)C(=O)O [myriocin]
mitochondrial respiration (initial oxygen consumption rate, OCR) [6]: reversed the respiratory defect; also recorded: rescued the bioenergetic defect; also recorded: reversed the bioenergetic deficits in these cells | ceramide levels [9]: significant reductions in ceramide content | sphingomyelin levels [9]: slight decreases in sphingomyelin | activity of supercomplexes I+III+IV, I+III and III+IV (in-gel complex I and IV activity) ([10]; mitochondria from PS-DKO cells incubated with BI or myriocin): rescued | assembly of respiratory supercomplexes (blue-native PAGE western blot) ([10]; mitochondria from PS-DKO cells, anti-complex I and III antibodies): increases the assembly of supercomplexes I+III and I+III+IV

CCCCCCCC/C=C\CCCCCCCC(=O)ON1C(=O)CC(S(=O)(=O)O)C1=O (stereo not drawn) [sulfo-N-succinimidyl oleate]
free cholesterol levels (filipin staining) [11]: reduces cholesterol levels in presenilin-mutant cells; also recorded: equally marked reduction in cellular free cholesterol

Aβ42 oligomers: oligomers formed from synthetic Aβ42 peptide, added at 5 or 10 μM
mitochondrial respiration (OCR) [12]: slightly decreased | mitochondrial respiration (OCR) ([12]; listed as Aβ oligomers): had little effect on respiration

cyclosporin A
free cholesterol levels (filipin staining) [11]: reduces cholesterol levels in presenilin-mutant cells; also recorded: the increased level of cholesterol seen in PS-mutant cells was reversed
